The values below come from patent US10918645B2 (LIFEARC, priority 2016, dated 2021).

One test concerns the target LRRK2 G2019S (Homo sapiens (Human), UniProt Q5S007, G2019S). The experiment in a line: Adapta Kinase Assay (LRRK2_IC50 assay). Type of test: biochemical. As to conditions: inhibition of LRRK2 G2019S. The procedure: In Adapta™ Kinase Assay (LRRK2_IC50 assay): the Kinase Reaction Buffer contained 5× Kinase Buffer S (Life Technologies, PV5213) and 2 mM DTT (Life Technologies, P2325).
The Adapta® universal kinase assay is a homogenous, fluorescent based immunoassay for the detection of ADP. In contrast to ATP depletion assays, the Adapta® assay is extremely sensitive to ADP formation such that a majority of the signal change occurs in the first 10-20% conversion of ATP to ADP. This makes the Adapta® universal kinase assay ideally suited for use with low activity kinases.
Prepare a 1× solution of kinase reaction buffer from the 5× Kinase Buffer S stock (listed above) by adding 2 ml of 5× stock to 8 ml of H2O to make 10 ml of 1× kinase reaction buffer. To this, add 20 μl of 1 M DTT.
Kinase reactions are performed in a 10 μl volume in low-volume 384-well plates. […] Other non—treated assay plates, while not tested, may also be suitable. The concentration of substrate in the assay is 100 μM, and the 1× kinase reaction buffer consists of 50 mM Tris-HCl pH8.5, 10 mM MgCl2, 1 mM EGTA, 0.01% Brij-35, and 2 mM DTT, plus any additional additives that may be required for a specific kinase. […] The plate is allowed to equilibrate at room temperature for at least 30 minutes before being read on a plate reader configured for Adapta™ TR-FRET.
The data presented in this document were generated using a BMG LABTECH PHERAstar plate reader using the appropriate filters and instrument settings for Adapta™. The Test Compounds are screened in 1% DMSO (final) in the well. For 8 point titrations, 5-fold serial dilutions are conducted from the starting concentration.
(§1) IC50 estimates were obtained using the software XLfit (IDBS Inc.).

The target in another test is JAK2 (Homo sapiens (Human), UniProt O60674). The experiment in a line: LANCE Kinase Assay (JAK2_IC50 selectivity assay). Type of test: biochemical.
Sequence of JAK2 (O60674 whole entry): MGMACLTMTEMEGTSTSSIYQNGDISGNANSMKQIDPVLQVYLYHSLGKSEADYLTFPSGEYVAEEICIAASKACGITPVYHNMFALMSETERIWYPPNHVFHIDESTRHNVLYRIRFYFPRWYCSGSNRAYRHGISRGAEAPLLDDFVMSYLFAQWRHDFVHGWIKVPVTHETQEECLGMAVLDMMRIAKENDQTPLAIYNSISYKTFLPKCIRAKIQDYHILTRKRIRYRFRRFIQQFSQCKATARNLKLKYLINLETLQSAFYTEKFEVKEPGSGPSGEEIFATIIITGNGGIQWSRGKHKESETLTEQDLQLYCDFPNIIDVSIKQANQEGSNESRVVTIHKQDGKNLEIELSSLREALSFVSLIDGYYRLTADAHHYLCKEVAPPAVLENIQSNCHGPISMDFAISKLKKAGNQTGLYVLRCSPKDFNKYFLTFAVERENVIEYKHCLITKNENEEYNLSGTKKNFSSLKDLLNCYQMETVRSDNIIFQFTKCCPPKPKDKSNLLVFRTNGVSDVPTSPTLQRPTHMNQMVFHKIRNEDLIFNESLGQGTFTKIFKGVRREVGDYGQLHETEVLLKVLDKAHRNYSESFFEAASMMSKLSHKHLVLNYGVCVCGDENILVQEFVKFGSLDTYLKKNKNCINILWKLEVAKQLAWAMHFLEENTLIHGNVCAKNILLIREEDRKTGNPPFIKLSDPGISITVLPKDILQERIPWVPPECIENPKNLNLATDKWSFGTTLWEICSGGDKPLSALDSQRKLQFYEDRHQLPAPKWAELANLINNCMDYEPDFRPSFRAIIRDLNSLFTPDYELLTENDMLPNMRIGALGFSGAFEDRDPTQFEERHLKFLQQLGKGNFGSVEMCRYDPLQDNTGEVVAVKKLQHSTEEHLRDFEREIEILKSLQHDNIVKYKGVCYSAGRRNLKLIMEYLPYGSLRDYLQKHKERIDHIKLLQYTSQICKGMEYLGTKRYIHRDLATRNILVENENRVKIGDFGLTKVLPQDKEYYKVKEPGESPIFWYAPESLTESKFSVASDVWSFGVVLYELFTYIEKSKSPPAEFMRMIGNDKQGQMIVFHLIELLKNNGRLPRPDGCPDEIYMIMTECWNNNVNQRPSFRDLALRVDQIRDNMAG
From the text: In LANCE® Kinase Assay (JAK2_IC50 selectivity assay): JAK2 (Invitrogen, Cat. No PV4288), ATP (Sigma, Cat. No. A7699-1G), DMSO (Sigma, Cat. No. D2650), DTT (Sigma, Cat. No. 43815), LANCE Ultra ULight™-JAK-1 peptide (Perkin Elmer, Cat. No. TRF0121), LANCE Eu-W1024 Anti-phosphotyrosine (PT66) (Perkin Elmer, Cat. No. AD0069), LANCE™ Detection Buffer (Perkin Elmer, Cat. No. CR97-100), Tofacitinib (PharmaBlock Sciences(Nanjing), Inc, Cat. No. PBN2011586-01); Equipments: Envision (Perkin Elmer), Bravo (Agilent); Consumables: 384 well Intermediate plate (Greiner, Cat. No. 781280), 384 well assay plate (Perkin Elmer, Cat. No. 6007299),
The assay involves two steps, the enzymatic step and the detection step with HTRF reagents. Step 1: During the enzymatic step the substrate-biotin is incubated with the kinase of interest. ATP is added to start the reaction. Step 2: The detection reagent catches the phosphorylated substrate and the resulting TR-FRET is proportional to the phosphorylation level.
Compound Preparation: Dissolve the test compounds into 30 mM DMSO solution and put them in nitrogen hood at room temperature for long term storage; Dilute the 30 mM compound in DMSO with 3-fold factor, total 11 concentrations; Aspirate 1 μl compound and then dilute them in 25 folds with kinase buffer. Mix well and balance 30 minutes at room temperature.
Kinase Reaction: Transfer 2.5 μl compounds in kinase buffer (4×) into assay plate by Agilent Bravo. Spin the plate; Transfer 5 μl enzyme mixture into the assay plate by using Eppendorf electronic multi-channel pipette. Spin the plate; Incubate the assay plate for 20 minutes at room temperature (23° C.); Add 2.5 μl kinase buffer with ATP into the assay plate by using Multidrop. Spin and seal the plate; Incubate the assay plate for 90 minutes at room temperature (23° C.).
Stop Reaction: Transfer 10 μl detection reagent (2 nM LANCE Eu-W1024 Anti-phosphotyrosine) into the assay plate by using Eppendorf electronic multi-channel pipette. Spin and seal the plate; Incubate the assay plate at room temperature (23° C.) for 60 minutes.
Detection and Read: The excitation wavelength is 340 nm, the primary emission wavelength is 615 nm and the secondary emission wavelength is 665 nm (for Cryptate and Ulight, respectively). Read the plate with EnVision to get the readout of both wavelengths; Calculate the ratio of 665 nm/615 nm.
as §1
A general note: In TR-FRET formats the signal depends on donor and acceptor labels being close together.

Sequence of LRRK2 G2019S (Q5S007 970-2527 G2019S): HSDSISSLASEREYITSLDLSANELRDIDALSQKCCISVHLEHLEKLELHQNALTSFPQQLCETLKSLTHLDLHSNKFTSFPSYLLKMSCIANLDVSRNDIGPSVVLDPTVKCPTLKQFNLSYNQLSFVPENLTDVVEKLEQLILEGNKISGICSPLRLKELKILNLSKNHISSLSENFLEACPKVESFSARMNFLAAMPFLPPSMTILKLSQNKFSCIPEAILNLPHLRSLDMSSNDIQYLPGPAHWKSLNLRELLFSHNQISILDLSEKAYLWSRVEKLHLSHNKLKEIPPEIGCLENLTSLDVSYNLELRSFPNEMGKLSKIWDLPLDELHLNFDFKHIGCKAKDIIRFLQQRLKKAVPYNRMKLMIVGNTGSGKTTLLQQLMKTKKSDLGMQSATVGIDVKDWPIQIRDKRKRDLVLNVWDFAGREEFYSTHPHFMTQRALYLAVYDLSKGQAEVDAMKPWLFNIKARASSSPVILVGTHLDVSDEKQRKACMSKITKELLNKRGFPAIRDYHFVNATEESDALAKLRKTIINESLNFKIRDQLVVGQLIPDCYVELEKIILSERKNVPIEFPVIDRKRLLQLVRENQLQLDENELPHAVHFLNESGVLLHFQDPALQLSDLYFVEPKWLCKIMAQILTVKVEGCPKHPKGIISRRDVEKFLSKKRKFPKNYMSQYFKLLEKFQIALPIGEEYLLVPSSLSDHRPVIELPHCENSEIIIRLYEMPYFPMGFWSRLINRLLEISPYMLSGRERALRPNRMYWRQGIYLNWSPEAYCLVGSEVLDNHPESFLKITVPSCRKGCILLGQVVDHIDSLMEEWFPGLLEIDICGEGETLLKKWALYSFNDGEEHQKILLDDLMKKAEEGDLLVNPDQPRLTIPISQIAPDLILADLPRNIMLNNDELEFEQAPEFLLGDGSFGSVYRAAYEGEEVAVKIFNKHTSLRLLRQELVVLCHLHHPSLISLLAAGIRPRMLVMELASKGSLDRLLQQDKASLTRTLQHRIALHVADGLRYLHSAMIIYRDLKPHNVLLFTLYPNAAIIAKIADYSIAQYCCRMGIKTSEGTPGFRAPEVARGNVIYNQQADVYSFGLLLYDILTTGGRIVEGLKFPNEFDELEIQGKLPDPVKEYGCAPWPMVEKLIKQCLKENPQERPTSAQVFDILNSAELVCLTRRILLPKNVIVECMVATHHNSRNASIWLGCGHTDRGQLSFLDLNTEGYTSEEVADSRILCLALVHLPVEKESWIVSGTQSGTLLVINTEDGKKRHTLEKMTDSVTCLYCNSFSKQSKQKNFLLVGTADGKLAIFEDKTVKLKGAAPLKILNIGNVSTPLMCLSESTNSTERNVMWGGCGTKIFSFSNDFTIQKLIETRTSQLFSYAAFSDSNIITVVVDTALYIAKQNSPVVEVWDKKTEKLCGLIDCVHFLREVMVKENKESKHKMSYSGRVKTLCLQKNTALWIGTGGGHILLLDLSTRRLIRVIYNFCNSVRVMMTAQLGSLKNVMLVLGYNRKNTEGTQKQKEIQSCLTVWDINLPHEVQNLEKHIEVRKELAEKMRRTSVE

As to “2-(5,11-dihydro-4H-3,4,10,11-tetraazadibenzo[cd,h]azulen-4-yl)ethan-1-ol [Example 57]”, the IC50 (commonly the concentration at which inhibition is half-maximal) against LRRK2 G2019S is 260 nM.
Regarding “4-(sec-butyl)-5,11-dihydro-4H-3,4,10,11-tetraazadibenzo[cd,h]azulene [Example 50]”, it took 120 nM to reach half-maximal inhibition on LRRK2 G2019S (IC50).
In the case of “4-(tetrahydro-2H-pyran-4-yl)-8-(trifluoromethyl)-5,11-dihydro-4H-3,4,7,10,11-pentaazadibenzo[cd,h]azulene [Example 89]”, the IC50 was 49 nM at LRRK2 G2019S and 23000 nM on JAK2.
In the case of “4-cyclobutyl-4,11-dihydro-5H-3,4,10,11-tetraazadibenzo[cd,h]azulen-5-one [Example 37]”, the 50% inhibitory concentration (IC50) on LRRK2 G2019S came out at 20 nM. That is a double-digit nanomolar value.
As for “4-cyclobutyl-5,11-dihydro-4H-3,4,10,11-tetraazadibenzo[cd,h]azulene [Example 51]”, the half-maximal inhibitory concentration (IC50) on LRRK2 G2019S turned out to be 39 nM; against JAK2, 580 nM.
Consider “4-cyclopropyl-4,11-dihydro-5H-3,4,10,11-tetraazadibenzo[cd,h]azulen-5-one [Example 33]”, for which, on LRRK2 G2019S, the IC50 was 30 nM. This lies in the double-digit nanomolar range.
On to “4-cyclopropyl-5,11-dihydro-4H-3,4,10,11-tetraazadibenzo[cd,h]azulene [Example 47]”, for which the half-inhibitory concentration (IC50) is 54 nM against LRRK2 G2019S and 2200 nM against JAK2.
Consider “4-ethyl-4,11-dihydro-5H-3,4,10,11-tetraazadibenzo[cd,h]azulen-5-one [Example 32]”, for which the IC50 at LRRK2 G2019S is 34 nM.
Consider “4-ethyl-5,11-dihydro-4H-3,4,10,11-tetraazadibenzo[cd,h]azulene [Example 46]”, for which the results for the 50% inhibitory concentration (IC50) at LRRK2 G2019S and against JAK2 were 49 nM and 1900 nM, respectively.
Molecule “4-isobutyl-5,11-dihydro-4H-3,4,10,11-tetraazadibenzo[cd,h]azulene [Example 49]” came in with an IC50 on LRRK2 G2019S of 67 nM.
Consider “4-isopropyl-4,11-dihydro-5H-3,4,10,11-tetraazadibenzo[cd,h]azulen-5-one [Example 34]”, for which the half-inhibitory concentration (IC50) against LRRK2 G2019S worked out at 41 nM.
The same measure, in the same setting: for “4-isopropyl-4,11-dihydro-5H-3,4,10,11-tetraazadibenzo[cd,h]azulen-5-one [Example 35]” the value was 75 nM.
Regarding “4-isopropyl-5,11-dihydro-4H-3,4,10,11-tetraazadibenzo[cd,h]azulene [Example 48]”, the concentration for half-maximal inhibition (IC50) was determined as 68 nM against LRRK2 G2019S and 550 nM at JAK2.
`CN1CCCc2n[nH]c3ccnc1c23` [Example 16, 6-methyl-6,7,8,9-tetrahydro-2H-1,2,5,6-tetraazabenzo[cd]azulene]: the IC50 against LRRK2 G2019S is 3000 nM. That is a single-digit micromolar value.
For the molecule `CC(C)N1CCCc2n[nH]c3ccnc1c23` [Example 19, 6-isopropyl-6,7,8,9-tetrahydro-2H-1,2,5,6-tetraazabenzo[cd]azulene], the 50% inhibitory concentration (IC50) against LRRK2 G2019S was determined as 230 nM; at JAK2, 3100 nM.
In turn, `CC(C)CN1CCCc2n[nH]c3ccnc1c23` [Example 20, 6-isobutyl-6,7,8,9-tetrahydro-2H-1,2,5,6-tetraazabenzo[cd]azulene] gave a half-maximal inhibitory concentration (IC50) at LRRK2 G2019S of 450 nM.
On LRRK2 G2019S, `CN1CCC(N2CCCc3n[nH]c4ccnc2c34)CC1` [Example 26, 6-(1-methylpiperidin-4-yl)-6,7,8,9-tetrahydro-2H-1,2,5,6-tetraazabenzo[cd]azulene] displayed an IC50 of 91 nM.
On the same count and under the same terms, for `OCCN1CCCc2n[nH]c3ccnc1c23` [Example 28, 2-(2,7,8,9-tetrahydro-6H-1,2,5,6-tetraazabenzo[cd]azulen-6-yl)ethan-1-ol] the value was 570 nM; for `CC1Cc2n[nH]c3ccnc(c23)N(C2CCOCC2)C1` (centres unmarked) [Example 30, 8-methyl-6-(tetrahydro-2H-pyran-4-yl)-6,7,8,9-tetrahydro-2H-1,2,5,6-tetraazabenzo[cd]azulene], 250 nM; for `CC(C)N1CCC(N2C(=O)c3ccccc3-c3n[nH]c4ccnc2c34)CC1` [Example 42], 31 nM.
With `CN1Cc2ccccc2-c2n[nH]c3ccnc1c23` [Example 45, 4-methyl-5,11-dihydro-4H-3,4,10,11-tetraazadibenzo[cd,h]azulene], the concentration for half-maximal inhibition (IC50) on LRRK2 G2019S was 71 nM; against JAK2 it was 2100 nM.
`c1ccc2c(c1)CN(C1CCCC1)c1nccc3[nH]nc-2c13` [Example 52]: the IC50 on LRRK2 G2019S amounted to 33 nM.
As to `c1ccc(N2Cc3ccccc3-c3n[nH]c4ccnc2c34)cc1` [Example 53], the half-maximal inhibitory concentration (IC50) against LRRK2 G2019S stood at 33 nM.
Turning to `CC(C)N1CCC(N2Cc3ccccc3-c3n[nH]c4ccnc2c34)CC1` [Example 56], the IC50 was 58 nM against LRRK2 G2019S and 4800 nM on JAK2.
For the molecule `O=C1c2n[nH]cc2-c2n[nH]c3ccnc(c23)N1C1CCOCC1` [Example 65, 9-(tetrahydro-2H-pyran-4-yl)-5,9-dihydro-1,2,4,5,8,9-hexaazabenzo[cd]cyclopenta[h]azulen-10(2H)-one], at LRRK2 G2019S, the midpoint of inhibition, the IC50, lay at 4 nM.
At LRRK2 G2019S, `Cn1cc2c(n1)C(=O)N(C1CCOCC1)c1nccc3[nH]nc-2c13` [Example 66, 2-methyl-9-(tetrahydro-2H-pyran-4-yl)-5,9-dihydro-1,2,4,5,8,9-hexaazabenzo[cd]cyclopenta[h]azulen-10(2H)-one] gave a half-maximal inhibitory concentration (IC50) of 26 nM.
`Cn1ncc2c1C(=O)N(C1CCOCC1)c1nccc3[nH]nc-2c13` [Example 67, 1-methyl-9-(tetrahydro-2H-pyran-4-yl)-5,9-dihydro-1,2,4,5,8,9-hexaazabenzo[cd]cyclopenta[h]azulen-10(1H)-one] had an IC50 on LRRK2 G2019S of 7 nM.
Same read-out and setting: the value for `Cn1cc2c(n1)CN(C1CCOCC1)c1nccc3[nH]nc-2c13` [Example 70, 2-methyl-9-(tetrahydro-2H-pyran-4-yl)-2,5,9,10-tetrahydro-1,2,4,5,8,9-hexaazabenzo[cd]cyclopenta[h]azulene] was 23 nM.
As for `CCn1cc2c(n1)CN(C1CCOCC1)c1nccc3[nH]nc-2c13` [Example 72, 2-ethyl-9-(tetrahydro-2H-pyran-4-yl)-2,5,9,10-tetrahydro-1,2,4,5,8,9-hexaazabenzo[cd]cyclopenta[h]azulene], the IC50 on LRRK2 G2019S came out at 15 nM; against JAK2, 660 nM.
With `CC(C)n1cc2c(n1)CN(C1CCOCC1)c1nccc3[nH]nc-2c13` [Example 74, 2-isopropyl-9-(tetrahydro-2H-pyran-4-yl)-2,5,9,10-tetrahydro-1,2,4,5,8,9-hexaazabenzo[cd]cyclopenta[h]azulene], the figures for the IC50 at LRRK2 G2019S and against JAK2 were 50 nM and 2400 nM, respectively.
For `CC(C)n1cc2c(n1)CN(C1CCN(C)CC1)c1nccc3[nH]nc-2c13` [Example 81, 2-isopropyl-9-(1-methylpiperidin-4-yl)-2,5,9,10-tetrahydro-1,2,4,5,8,9-hexaazabenzo[cd]cyclopenta[h]azulene], the results for the IC50 on LRRK2 G2019S and at JAK2 were 40 nM and 4600 nM, respectively.
`CC(C)N1CCC(N2Cc3nn(C)cc3-c3n[nH]c4ccnc2c34)CC1` [Example 82, 9-(1-isopropylpiperidin-4-yl)-2-methyl-2,5,9,10-tetrahydro-1,2,4,5,8,9-hexaazabenzo[cd]cyclopenta[h]azulene] gave an IC50 at LRRK2 G2019S of 39 nM.
Same read-out and setting: for `CCN1CCN(C2CCOCC2)c2nccc3[nH]nc1c23` [Example 94, 9-ethyl-6-(tetrahydro-2H-pyran-4-yl)-6,7,8,9-tetrahydro-2H-1,2,5,6,9-pentaazabenzo[cd]azulene] the value was 820 nM.
